From patent US9661854B2, “Molecules having pesticidal utility, and intermediates, compositions, and processes, related thereto” (Dow AgroSciences LLC, priority 2015, dated 2017)

How the values were obtained:
[1] = system: Beet Armyworm (Spodoptera exigua, LAPHEG); assay: Bioassay on Beet Armyworm (BAW), 128-well diet tray assay; assay type: in vivo; conditions: 168 h, 50 μg/cm^2 on artificial diet, second instar larvae, 25° C., five to seven days, average of eight wells, read-out: BAW % Control (or Mortality) rating
Experimental: (§1) Example A: Bioassays on Beet Armyworm (Spodoptera exigua, LAPHEG) (“BAW”) and Cabbage Looper (Trichoplusia ni, TRIPNI) (“CL”)
(§2) Certain molecules disclosed in this document were tested against BAW and CL using procedures described in the following examples. In the reporting of the results, the “BAW & CL Rating Table” was used (See Table Section).
Bioassays on BAW were conducted using a 128-well diet tray assay. One to five second instar BAW larvae were placed in each well (3 mL) of the diet tray that had been previously filled with 1 mL of artificial diet to which 50 μg/cm^2 of the test molecule (dissolved in 50 μL of 90:10 acetone-water mixture) had been applied (to each of eight wells) and then allowed to dry. Trays were covered with a clear self-adhesive cover, vented to allow gas exchange, and held at 25° C., 14:10 light-dark for five to seven days. Percent mortality was recorded for the larvae in each well; activity in the eight wells was then averaged. The results are indicated in the table entitled “Table ABC: Biological Results” (See Table Section).

[2] = system: Cabbage Looper (Trichoplusia ni, TRIPNI); assay: Bioassay on Cabbage Looper (CL), 128-well diet tray assay; assay type: in vivo; conditions: 168 h, 50 μg/cm^2 on artificial diet, second instar larvae, 25° C., five to seven days, average of eight wells, read-out: CL % Control (or Mortality) rating
Experimental: as §1, §2
Bioassays on CL were conducted using a 128-well diet tray assay. One to five second instar CL larvae were placed in each well (3 mL) of the diet tray that had been previously filled with 1 mL of artificial diet to which 50 μg/cm^2 of the test molecule (dissolved in 50 μL of 90:10 acetone-water mixture) had been applied (to each of eight wells) and then allowed to dry. Trays were covered with a clear self-adhesive cover, vented to allow gas exchange, and held at 25° C., 14:10 light-dark for five to seven days. Percent mortality was recorded for the larvae in each well; activity in the eight wells was then averaged. The results are indicated in the table entitled “Table ABC: Biological Results” (See Table Section).

**Q.** With `Cc1ccc(C(C)C)c(N2C(=O)CS/C2=N\C(=O)Nc2ccc(CCc3ncn(-c4ccc(OC(F)(F)F)cc4)n3)cc2)c1` [F1, (Z)-1-(3-(2-isopropyl-5-methylphenyl)-4-oxothiazolidin-2-ylidene)-3-(4-(2-(1-(4-(trifluoromethoxy)phenyl)-1H-1,2,4-triazol-3-yl)ethyl)phenyl)urea] as the molecule, how does the mortality at 50 µg/cm2 [1] read?
**A.** The mortality at 50 µg/cm2 was 50 to 100%.

**Q.** What about the mortality at 50 µg/cm2 [2] of the same molecule?
**A.** The mortality at 50 µg/cm2 was 50 to 100%.

**Q.** How did the mortality at 50 µg/cm2 [1] turn out when `Cc1ccc(C(C)C)c(N2C(=O)CS/C2=N\C(=O)Nc2ccc(CCc3ncn(-c4ccc(OC(F)(F)F)cc4)n3)c(C)c2)c1` [F2, (Z)-1-(3-(2-Isopropyl-5-methylphenyl)-4-oxothiazolidin-2-ylidene)-3-(3-methyl-4-(2-(1-(4-(trifluoromethoxy)phenyl)-1H-1,2,4-triazol-3-yl)ethyl)phenyl)urea] was run?
**A.** Its mortality at 50 µg/cm2 is 50 to 100%.

**Q.** And the mortality at 50 µg/cm2 [2]?
**A.** The mortality at 50 µg/cm2 was 50 to 100%.

**Q.** How did the mortality at 50 µg/cm2 [1] turn out when `Cc1ccc(F)c(N2C(=O)CS/C2=N\C(=O)Nc2ccc(CCc3ncn(-c4ccc(OC(F)(F)F)cc4)n3)cc2)c1` [F3, (Z)-1-(3-(2-Fluoro-5-methylphenyl)-4-oxothiazolidin-2-ylidene)-3-(4-(2-(1-(4-(trifluoromethoxy)phenyl)-1H-1,2,4-triazol-3-yl)ethyl)phenyl)urea] was run?
**A.** The mortality at 50 µg/cm2 was 50 to 100%.

**Q.** And the mortality at 50 µg/cm2 [2]?
**A.** Its mortality at 50 µg/cm2 is 50 to 100%.

**Q.** `Cc1ccc(C(F)(F)F)c(N2C(=O)CS/C2=N\C(=O)Nc2ccc(CCc3ncn(-c4ccc(OC(F)(F)F)cc4)n3)cc2)c1` [F5, (Z)-1-(3-(5-Methyl-2-(trifluoromethyl)phenyl)-4-oxothiazolidin-2-ylidene)-3-(4-(2-(1-(4-(trifluoromethoxy)phenyl)-1H-1,2,4-triazol-3-yl)ethyl)phenyl)urea] was tested. Which mortality at 50 µg/cm2 [1] did it give?
**A.** The mortality at 50 µg/cm2 was 50 to 100%.

**Q.** And the mortality at 50 µg/cm2 [2]?
**A.** The mortality at 50 µg/cm2 was 50 to 100%.

**Q.** For `Cc1ccc(Cl)c(N2C(=O)CS/C2=N\C(=O)Nc2ccc(CCc3ncn(-c4ccc(OC(F)(F)F)cc4)n3)cc2)c1` [F6, (Z)-1-(3-(2-Chloro-5-methylphenyl)-4-oxothiazolidin-2-ylidene)-3-(4-(2-(1-(4-(trifluoromethoxy)phenyl)-1H-1,2,4-triazol-3-yl)ethyl)phenyl)urea], which mortality at 50 µg/cm2 [1] is on record?
**A.** Its mortality at 50 µg/cm2 is 50 to 100%.

**Q.** What about the mortality at 50 µg/cm2 [2] of the same molecule?
**A.** Its mortality at 50 µg/cm2 is 50 to 100%.

**Q.** With `CCCc1ccc(C)cc1N1C(=O)CS/C1=N\C(=O)Nc1ccc(CCc2ncn(-c3ccc(OC(F)(F)F)cc3)n2)cc1` [F7, (Z)-1-(3-(5-Methyl-2-propylphenyl)-4-oxothiazolidin-2-ylidene)-3-(4-(2-(1-(4-(trifluoromethoxy)phenyl)-1H-1,2,4-triazol-3-yl)ethyl)phenyl)urea] as the molecule, how does the mortality at 50 µg/cm2 [1] read?
**A.** Its mortality at 50 µg/cm2 is 50 to 100%.

**Q.** What about the mortality at 50 µg/cm2 [2] of the same molecule?
**A.** The mortality at 50 µg/cm2 was 50 to 100%.

**Q.** How did the mortality at 50 µg/cm2 [1] turn out when `CCOc1ccc(C)cc1N1C(=O)CS/C1=N\C(=O)Nc1ccc(CCc2ncn(-c3ccc(OC(F)(F)F)cc3)n2)cc1` [F8, (Z)-1-(3-(2-Ethoxy-5-methylphenyl)-4-oxothiazolidin-2-ylidene)-3-(4-(2-(1-(4-(trifluoromethoxy)phenyl)-1H-1,2,4-triazol-3-yl)ethyl)phenyl)urea] was run?
**A.** The mortality at 50 µg/cm2 was 50 to 100%.

**Q.** And the mortality at 50 µg/cm2 [2]?
**A.** The mortality at 50 µg/cm2 was 50 to 100%.

**Q.** What does the source list for `Cc1cc(N2C(=O)CS/C2=N\C(=O)Nc2ccc(CCc3ncn(-c4ccc(OC(F)(F)F)cc4)n3)cc2)c(C(C)C)cc1F` [F9, (Z)-1-(3-(4-Fluoro-2-isopropyl-5-methylphenyl)-4-oxothiazolidin-2-ylidene)-3-(4-(2-(1-(4-(trifluoromethoxy)phenyl)-1H-1,2,4-triazol-3-yl)ethyl)phenyl)urea]?
**A.** mortality at 50 µg/cm2 [1]: 50 to 100%; mortality at 50 µg/cm2 [2]: 50 to 100%

**Q.** `CCC(C)Oc1ccc(C)cc1N1C(=O)CS/C1=N\C(=O)Nc1ccc(CCc2ncn(-c3ccc(OC(F)(F)F)cc3)n2)cc1` (stereo not shown) [F10, (Z)-1-(3-(2-(sec-Butoxy)-5-methylphenyl)-4-oxothiazolidin-2-ylidene)-3-(4-(2-(1-(4-(trifluoromethoxy)phenyl)-1H-1,2,4-triazol-3-yl)ethyl)phenyl)urea] was tested. Which mortality at 50 µg/cm2 [1] did it give?
**A.** Its mortality at 50 µg/cm2 is 50 to 100%.

**Q.** And the mortality at 50 µg/cm2 [2]?
**A.** Its mortality at 50 µg/cm2 is 50 to 100%.

**Q.** What does the source list for `Cc1ccc(OC(C)C)c(N2C(=O)CS/C2=N\C(=O)Nc2ccc(CCc3ncn(-c4ccc(OC(F)(F)F)cc4)n3)cc2)c1` [F11, (Z)-1-(3-(2-Isopropoxy-5-methylphenyl)-4-oxothiazolidin-2-ylidene)-3-(4-(2-(1-(4-(trifluoromethoxy)phenyl)-1H-1,2,4-triazol-3-yl)ethyl)phenyl)urea]?
**A.** mortality at 50 µg/cm2 [1]: 50 to 100%; mortality at 50 µg/cm2 [2]: 50 to 100%

**Q.** Which results are given for `Cc1ccc(OC(F)(F)F)c(N2C(=O)CS/C2=N\C(=O)Nc2ccc(CCc3ncn(-c4ccc(OC(F)(F)F)cc4)n3)cc2)c1` [F12, (Z)-1-(3-(5-Methyl-2-(trifluoromethoxy)phenyl)-4-oxothiazolidin-2-ylidene)-3-(4-(2-(1-(4-(trifluoromethoxy)phenyl)-1H-1,2,4-triazol-3-yl)ethyl)phenyl)urea]?
**A.** mortality at 50 µg/cm2 [1]: 50 to 100%; mortality at 50 µg/cm2 [2]: 50 to 100%

**Q.** Which mortality at 50 µg/cm2 [1] does the source give for `Cc1ccc(OCC(F)(F)F)c(N2C(=O)CS/C2=N\C(=O)Nc2ccc(CCc3ncn(-c4ccc(OC(F)(F)F)cc4)n3)cc2)c1` [F13, (Z)-1-(3-(5-Methyl-2-(2,2,2-trifluoroethoxy)phenyl)-4-oxothiazolidin-2-ylidene)-3-(4-(2-(1-(4-(trifluoromethoxy)phenyl)-1H-1,2,4-triazol-3-yl)ethyl)phenyl)urea] here?
**A.** The mortality at 50 µg/cm2 was 50 to 100%.

**Q.** And the mortality at 50 µg/cm2 [2]?
**A.** Its mortality at 50 µg/cm2 is 50 to 100%.

**Q.** `COC(=O)c1cc(CCc2ncn(-c3ccc(OC(F)(F)F)cc3)n2)ccc1NC(=O)/N=C1\SCC(=O)N1c1cc(C)ccc1C(C)C` [F16, Methyl (Z)-2-(3-(3-(2-isopropyl-5-methylphenyl)-4-oxothiazolidin-2-ylidene)ureido)-5-(2-(1-(4-(trifluoromethoxy)phenyl)-1H-1,2,4-triazol-3-yl)ethyl)benzoate] was tested. Which mortality at 50 µg/cm2 [1] did it give?
**A.** Its mortality at 50 µg/cm2 is 50 to 100%.

**Q.** What about the mortality at 50 µg/cm2 [2] of the same molecule?
**A.** The mortality at 50 µg/cm2 was 50 to 100%.

**Q.** With `Cc1ccc(C(C)C)c(N2C(=O)CS/C2=N\C(=O)Nc2ccc(CCc3ncn(-c4ccc(OC(F)(F)F)cc4)n3)cc2F)c1` [F17, (Z)-1-(2-Fluoro-4-(2-(1-(4-(trifluoromethoxy)phenyl)-1H-1,2,4-triazol-3-yl)ethyl)phenyl)-3-(3-(2-isopropyl-5-methylphenyl)-4-oxothiazolidin-2-ylidene)urea] as the molecule, how does the mortality at 50 µg/cm2 [1] read?
**A.** The mortality at 50 µg/cm2 was 50 to 100%.

**Q.** And the mortality at 50 µg/cm2 [2]?
**A.** The mortality at 50 µg/cm2 was 50 to 100%.

**Q.** Which mortality at 50 µg/cm2 [1] does the source give for `Cc1ccc(C(C)C)c(N2C(=O)CS/C2=N\C(=O)Nc2ccc(CCc3ncn(-c4ccc(OC(F)(F)F)cc4)n3)cc2Cl)c1` [F18, (Z)-1-(2-Chloro-4-(2-(1-(4-(trifluoromethoxy)phenyl)-1H-1,2,4-triazol-3-yl)ethyl)phenyl)-3-(3-(2-isopropyl-5-methylphenyl)-4-oxothiazolidin-2-ylidene)urea] here?
**A.** Its mortality at 50 µg/cm2 is 50 to 100%.

**Q.** What about the mortality at 50 µg/cm2 [2] of the same molecule?
**A.** Its mortality at 50 µg/cm2 is 50 to 100%.

**Q.** Which results are given for `Cc1ccc(C(C)C)c(N2C(=O)CS/C2=N\C(=O)Nc2c(F)cc(CCc3ncn(-c4ccc(OC(F)(F)F)cc4)n3)cc2F)c1` [F19, (Z)-1-(2,6-Difluoro-4-(2-(1-(4-(trifluoromethoxy)phenyl)-1H-1,2,4-triazol-3-yl)ethyl)phenyl)-3-(3-(2-isopropyl-5-methylphenyl)-4-oxothiazolidin-2-ylidene)urea]?
**A.** mortality at 50 µg/cm2 [1]: 50 to 100%; mortality at 50 µg/cm2 [2]: 50 to 100%

**Q.** `COc1cc(CCc2ncn(-c3ccc(OC(F)(F)F)cc3)n2)ccc1NC(=O)/N=C1\SCC(=O)N1c1cc(C)ccc1C(C)C` [F20, (Z)-1-(3-(2-Isopropyl-5-methylphenyl)-4-oxothiazolidin-2-ylidene)-3-(2-methoxy-4-(2-(1-(4-(trifluoromethoxy)phenyl)-1H-1,2,4-triazol-3-yl)ethyl)phenyl)urea] was tested. Which mortality at 50 µg/cm2 [1] did it give?
**A.** Its mortality at 50 µg/cm2 is 50 to 100%.

**Q.** What about the mortality at 50 µg/cm2 [2] of the same molecule?
**A.** The mortality at 50 µg/cm2 was 50 to 100%.

**Q.** For `COCc1ccc(C)cc1N1C(=O)CS/C1=N\C(=O)Nc1ccc(CCc2ncn(-c3ccc(OC(F)(F)F)cc3)n2)cc1` [F21, (Z)-1-(3-(2-(Methoxymethyl)-5-methylphenyl)-4-oxothiazolidin-2-ylidene)-3-(4-(2-(1-(4-(trifluoromethoxy)phenyl)-1H-1,2,4-triazol-3-yl)ethyl)phenyl)urea], which mortality at 50 µg/cm2 [1] is on record?
**A.** Its mortality at 50 µg/cm2 is 50 to 100%.

**Q.** And the mortality at 50 µg/cm2 [2]?
**A.** Its mortality at 50 µg/cm2 is 50 to 100%.

**Q.** `COCc1ccc(C)cc1N1C(=O)CS/C1=N\C(=O)Nc1ccc(CCc2ncn(-c3ccc(OC(F)(F)F)cc3)n2)cc1F` [F22, (Z)-1-(2-Fluoro-4-(2-(1-(4-(trifluoromethoxy)phenyl)-1H-1,2,4-triazol-3-yl)ethyl)phenyl)-3-(3-(2-(methoxymethyl)-5-methylphenyl)-4-oxothiazolidin-2-ylidene)urea] was tested. Which mortality at 50 µg/cm2 [1] did it give?
**A.** The mortality at 50 µg/cm2 was 50 to 100%.

**Q.** And the mortality at 50 µg/cm2 [2]?
**A.** The mortality at 50 µg/cm2 was 50 to 100%.

**Q.** `CCC(C)Oc1ccc(C)cc1N1C(=O)CS/C1=N\C(=O)Nc1ccc(CCc2ncn(-c3ccc(OC(F)(F)F)cc3)n2)cc1F` (stereo not shown) [F24, (Z)-1-(3-(2-(sec-Butoxy)-5-methylphenyl)-4-oxothiazolidin-2-ylidene)-3-(2-fluoro-4-(2-(1-(4-(trifluoromethoxy)phenyl)-1H-1,2,4-triazol-3-yl)ethyl)phenyl)urea] was tested. Which mortality at 50 µg/cm2 [1] did it give?
**A.** Its mortality at 50 µg/cm2 is 50 to 100%.

**Q.** What about the mortality at 50 µg/cm2 [2] of the same molecule?
**A.** The mortality at 50 µg/cm2 was 50 to 100%.
